# BindingDB's records for doi:10.1016/j.bioorg.2015.10.006 (University of Karachi, 2015)
# Biological target: T1, Thymidine phosphorylase (Escherichia coli (strain SMS-3-5 / SECEC), UniProt B1LEI7)
# T1 sequence (B1LEI7 whole entry): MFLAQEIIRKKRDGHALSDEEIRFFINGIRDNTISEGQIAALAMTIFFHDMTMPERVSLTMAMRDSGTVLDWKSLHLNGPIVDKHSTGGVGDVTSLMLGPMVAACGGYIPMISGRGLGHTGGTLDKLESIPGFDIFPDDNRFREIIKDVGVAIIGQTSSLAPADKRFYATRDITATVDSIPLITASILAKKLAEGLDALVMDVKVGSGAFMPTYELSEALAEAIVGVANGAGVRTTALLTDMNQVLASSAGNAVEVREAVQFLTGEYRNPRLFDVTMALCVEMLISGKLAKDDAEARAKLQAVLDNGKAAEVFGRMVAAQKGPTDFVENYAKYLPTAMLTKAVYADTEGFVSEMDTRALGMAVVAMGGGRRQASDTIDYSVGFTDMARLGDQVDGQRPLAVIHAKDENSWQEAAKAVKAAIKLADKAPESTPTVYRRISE
# Assay: Thymidine Phosphorylase Inhibition Assay
# Conditions: pH 7
# Experimental: TP inhibition assay was performed spectrophotometrically. The method of Bera et al. was followed with slight modifications. Reaction mixture of 200 µL, contained 20 µL of enzyme (0.058 unit/well), 150 µL of potassium phosphate buffer (pH 7.0, 50 mM), and 10 µL of test compound (0.5 mM). The reaction mixture was then incubated for 10 min at 30 °C. […] Every experiment was run in triplicate. 7-Deazaxanthine was used as positive control.
row,Structure (SMILES),IC50
1,O=c1[nH]c(-c2cc(O)ccc2O)nc2ccccc12,59.5 µM
2,COc1ccc(-c2nc3ccccc3c(=O)[nH]2)cc1O,169 µM
3,CCOc1cc(-c2nc3ccccc3c(=O)[nH]2)ccc1O,256 µM
4,O=c1[nH]c(-c2ccc(O)cc2)nc2ccccc12,234 µM
5,O=c1[nH]c(-c2cccc(O)c2)nc2ccccc12,295 µM
6,O=c1[nH]c(-c2ccc(O)c(O)c2)nc2ccccc12,42.9 µM
